The NIST ThermoML archive (doi:10.1016/j.jct.2005.05.019)
Several values for one entry are separate records, joined by “and”; a condition that tells them apart may be missing. Identical values can stand only once.

Conditions: Liquid, Bellows volumetry

CC(C)C [2-methylpropane]
mass density
Conditions | 360 K | 380 K | 400 K | 420 K | 440 K
3000 kPa | – | 422.93 kg/m3 and 422.97 kg/m3 | – | – | –
4000 kPa | – | – | 374.9 kg/m3 | – | –
5000 kPa | – | 441.32 kg/m3 and 441.54 kg/m3 | 394.02 kg/m3 | – | –
10000 kPa | 496.94 kg/m3 | 468.99 kg/m3 and 469.14 kg/m3 | 438.72 kg/m3 | 404.86 kg/m3 | 366.35 kg/m3
20000 kPa | 522.77 kg/m3 | 501.27 kg/m3 and 501.58 kg/m3 | 479.65 kg/m3 | 457.86 kg/m3 | 435.91 kg/m3
30000 kPa | 541.32 kg/m3 | 522.56 kg/m3 and 522.99 kg/m3 | 504.24 kg/m3 | 486.44 kg/m3 | 469.37 kg/m3
40000 kPa | 555.78 kg/m3 | 539.38 kg/m3 | 522.85 kg/m3 | 507.08 kg/m3 | 492.27 kg/m3
50000 kPa | 568.17 kg/m3 | 552.44 kg/m3 and 552.92 kg/m3 | 537.71 kg/m3 | 523.34 kg/m3 | 510.21 kg/m3
60000 kPa | 578.92 kg/m3 | 564.45 kg/m3 | 550.04 kg/m3 | 537.02 kg/m3 | 524.88 kg/m3
70000 kPa | 588.19 kg/m3 | 574.7 kg/m3 | 561.13 kg/m3 | 548.69 kg/m3 | 537.25 kg/m3
80000 kPa | 596.75 kg/m3 | 583.67 kg/m3 | 570.85 kg/m3 | 559.13 kg/m3 | 548.44 kg/m3
90000 kPa | 604.39 kg/m3 | 592.06 kg/m3 | 579.4 kg/m3 | 568.43 kg/m3 | 558.09 kg/m3
100000 kPa | 611.7 kg/m3 | 599.29 kg/m3 and 599.44 kg/m3 | 587.43 kg/m3 | 576.8 kg/m3 | 567 kg/m3
120000 kPa | 624.5 kg/m3 | 612.95 kg/m3 | 601.69 kg/m3 | 591.55 kg/m3 | 582.66 kg/m3
140000 kPa | 635.8 kg/m3 | 624.62 kg/m3 | 614.21 kg/m3 | 604.56 kg/m3 | 595.99 kg/m3
160000 kPa | 645.85 kg/m3 | 635.26 kg/m3 | 625.04 kg/m3 | 616.21 kg/m3 | 608.09 kg/m3
180000 kPa | 655.11 kg/m3 | 644.86 kg/m3 | 635.05 kg/m3 | 626.52 kg/m3 | 618.72 kg/m3
200000 kPa | 663.39 kg/m3 | 653.7 kg/m3 and 653.25 kg/m3 | 644.07 kg/m3 | 635.99 kg/m3 | 628.4 kg/m3
